Experimental data as given in patent US11466029B2, “Compounds useful to treat influenza virus infections” (Nanjing Zhengxiang Pharmaceuticals Co., Ltd., priority 2019, dated 2022).
Entries after “also recorded” stand apart in the source; their conditions may differ. Where two headings read alike, the source gives them in different places.

What was measured:
[1] = biological target: Influenza Virus CEN PAn enzyme (UniProt P03433); assay type: biochemical; conditions: read-out: CEN IC50
[2] = Liver microsomal stability; conditions: human, liver microsomes
[3] = Liver microsomal stability; conditions: dog, liver microsomes
[4] = Liver microsomal stability; conditions: mouse, liver microsomes
[5] = Liver microsomal stability; conditions: rat, liver microsomes
[6] = Liver microsomal stability; conditions: cynomolgus monkey, liver microsomes
B/Lee/40 = assay: microbe, parasite or virus in culture; assay type: cell-based; conditions: Influenza B virus, 120 h
[7] = test system: A/California/07/2009 (H1N1)pdm09; assay: microbe, parasite or virus in culture; assay type: cell-based; conditions: Influenza A virus, H1N1, MDCK, 120 h
IFV A/PR/8/34 (H1N1) = assay: microbe, parasite or virus in culture; assay type: cell-based; conditions: Influenza A virus, MDCK, 120 h
IFV A/WSN/33 (H1N1) = assay: microbe, parasite or virus in culture; assay type: cell-based; conditions: Influenza A virus, MDCK, 120 h
B/Florida/78/2015 = assay: microbe, parasite or virus in culture; assay type: cell-based; conditions: Influenza B virus, 120 h
[8] = in vivo; cited from earlier work
in vitro = conditions: dog
A/Hongkong/8/68 (H3N2) = assay: microbe, parasite or virus in culture; assay type: cell-based; conditions: Influenza A virus, H3N2, MDCK, 120 h
Pharmacokinetics in Rats = assay type: in vivo; set-up: AUClast: unit not given here; conditions: non-fasted male SD rats, plasma B-1
Description: C-1 was administered to 3 non-fasted male SD rats via oral gavage at 3 mg/kg.

in vivo [9] = conditions: male, CD-1, mouse, iv, 1 mg/kg
Description: (§1) B-1 was administered to male CD-1 mice (4-6 weeks old, 20-30 grams, 3 animals each group) via intravenous (IV) bolus at 1 mg/kg and by oral gavage (PO) at 10 mg/kg. […] All animals had free access to food and water prior to dosing. Blood samples (˜0.03 mL each time point) were collected via the jugular vein into tubes containing sodium heparin as the anticoagulant at 0.033, 0.083, 0.25, 0.5, 1, 2, 4, 8 and 24 hours post dose for IV administration and 0.083, 0.25, 0.5, 1, 2, 4, 8 and 24 hours post dose for PO administration. The blood samples were then centrifuged for 5 minutes in a centrifuge refrigerated at 4° C. The resultant plasma samples were analyzed using LC/MS/MS to determine concentrations of B-1. Non-compartmental model with WinNonlin (Phoenix™, version 8.0) software was used to calculate pharmacokinetic (PK) parameters.

influenza virus PR/8/34 = test system: influenza virus PR/8/34; set-up: species or system Balb/c mice; conditions: in vivo; for body weight loss: 5 mg/kg
A/Weiss/43 (H1N1) = assay: microbe, parasite or virus in culture; assay type: cell-based; conditions: Influenza A virus, H1N1, MDCK, 120 h
influenza virus = assay type: cell-based
in vivo [10] = conditions: male, cynomolgus monkey, iv, 0.25 mg/kg
Description: (§2) B-1 was administered to male cynomolgus monkeys (2-5 years old, 2-5 kg, 3 animals each group) via intravenous (IV) bolus at 0.25 mg/kg and by oral gavage (PO) at 1 mg/kg; Animals in the IV group had free access to food and water (non-fasted) and animals in the PO group were fasted overnight prior to dosing (fasted). C-1 was administered to male cynomolgus monkeys (fasted or non-fasted, 3 each group) via oral gavage at 1 mg/kg. Blood samples (˜0.5 mL each time point) were collected via the jugular vein into tubes containing potassium ethylenediaminetetraacetic acid (K2EDTA) as the anticoagulant at 0.033, 0.083, 0.25, 0.5, 1, 2, 4, 8 and 24 hours post dose for IV administration and 0.083, 0.25, 0.5, 1, 2, 4, 8 and 24 hours post dose for PO administration. The blood samples were then centrifuged for 10 minutes in a centrifuge refrigerated at 2-8° C. The resultant plasma samples were analyzed using LC/MS/MS to determine concentrations of B-1. Non-compartmental model with WinNonlin (Phoenix™, version 6.1) software was used to calculate pharmacokinetic (PK) parameters.

[11] = for AUClast: plasma B-1
Description: as §2

[12] = male CD-1 mice, plasma B-1
Description: as §1

[13] = Toxicity study, oral gavage once daily for 7 days; assay type: in vivo, Sprague Dawley (SD) rats
Description: A toxicity study of C-1 was conducted in Sprague Dawley (SD) rats. C-1 at 20, 100 and 500 mg/kg or vehicle (0.5% w/v CMC-Na and 0.1% v/v Tween-80 in DI water) was administered via oral gavage to Sprague Dawley rats (7-9 weeks, about 250-300 grams each for males and about 200-250 grams each for females) once daily for 7 days. 8 females and 8 males in each dose group were used.

[14] = Sprague-Dawley (SD), rat, IV 0.25 mg/kg
[15] = PO 1 mg/kg, fasted male cynomolgus monkeys
[16] = B/Lee/40, MDCK cells, 5 days, read-out: EC50
[17] = B/Florida/78/2015, MDCK cells, 5 days, read-out: EC50

O=C1c2c(O)c(=O)ccn2N(C2c3ccccc3[Se]Cc3c2ccc(F)c3F)C2COCCN12 (single isomer, unassigned) [Compound A-1-P1, 12-(7,8-Difluoro-6,11-Dihydrodibenzo[b,e]Selenepin-11-yl)-7-Hydroxy-3,4,12,12a-Tetrahydro-1H-[1,4]Oxazino[3,4-c]Pyrido[2,1-f][1,2,4]Triazine-6,8-Dione]
IC50 [1]: 42 nM

O=C1c2c(O)c(=O)ccn2N(C2c3ccccc3[Se]Cc3c2ccc(F)c3F)C2COCCN12 (single isomer, unassigned) [Compound A-1-P2, 12-(7,8-Difluoro-6,11-Dihydrodibenzo[b,e]Selenepin-11-yl)-7-Hydroxy-3,4,12,12a-Tetrahydro-1H-[1,4]Oxazino[3,4-c]Pyrido[2,1-f][1,2,4]Triazine-6,8-Dione]
half-life [2]: 60.9 h | microsomal CLint [2]: 2.2 µL/min/mg | half-life [3]: 6.25 h | microsomal CLint [3]: 4.5 µL/min/mg | IC50 [1]: 25 nM | half-life [4]: 4.77 h | microsomal CLint [4]: 5.2 µL/min/mg | half-life [5]: 2.88 h | microsomal CLint [5]: 8.3 µL/min/mg | half-life [6]: 1.42 h | microsomal CLint [6]: 16 µL/min/mg

CP(C)(=O)c1cn2c(c(O)c1=O)C(=O)N1CCOCC1N2C1c2ccccc2SCc2c1ccc(F)c2F (single isomer, unassigned) [Compound E-1a, 12-(7,8-difluoro-6,11-dihydrodibenzo[b,e]thiepin-11-yl)-9-(dimethylphosphoryl)-7-hydroxy-3,4,12,12a-tetrahydro-1H-[1,4]oxazino[3,4-c]pyrido[2,1-f][1,2,4]triazine-6,8-dione]
IC50 [1]: 31 nM

CP(C)(=O)c1cn2c(c(O)c1=O)C(=O)N1CCOCC1N2C1c2ccccc2SCc2c1ccc(F)c2F (single isomer, unassigned) [Compound E-1b, 12-(7,8-difluoro-6,11-dihydrodibenzo[b,e]thiepin-11-yl)-9-(dimethylphosphoryl)-7-hydroxy-3,4,12,12a-tetrahydro-1H-[1,4]oxazino[3,4-c]pyrido[2,1-f][1,2,4]triazine-6,8-dione]
IC50 [1]: 32 nM

O=C1c2c(O)c(=O)ccn2N([C@@H]2c3ccccc3SCc3c2ccc(F)c3F)[C@@H]2COCCN12 [Baloxavir acid, reference compound]
EC50 (B/Lee/40; MDCK): 6.3 nM | EC50 [7]: 0.66 nM | IC50 [1]: 14 nM | EC50 (IFV A/PR/8/34 (H1N1)): 0.73 nM | EC50 (IFV A/WSN/33 (H1N1)): 0.44 nM | EC50 (B/Florida/78/2015; MDCK): 16 nM | oral availability [8]: poor oral availability | CC50 (in vitro): 12000 nM | EC50 (A/Hongkong/8/68 (H3N2)): 1.7 nM

O=C1c2c(O)c(=O)ccn2N([C@@H]2c3ccccc3[Se]Cc3c2ccc(F)c3F)[C@@H]2COCCN12 [Compound B-1, (R)-12-((S)-7,8-Difluoro-6,11-Dihydrodibenzo[b,e]Selenepin-11-yl)-7-Hydroxy-3,4,12,12a-Tetrahydro-1H-[1,4]Oxazino[3,4-c]Pyrido[2,1-f][1,2,4]Triazine-6,8-Dione]
cytotoxicity (MDCK cells): little cytotoxicity | EC50 (B/Lee/40; MDCK): 12 nM | EC50 [7]: 0.37 nM | AUClast (Pharmacokinetics in Rats; IV 0.25 mg/kg): 84 | AUClast (Pharmacokinetics in Rats; PO 3 mg/kg): 123 | AUC(0-inf) (Pharmacokinetics in Rats; [14]): 92 ng·h/mL | half-life (Pharmacokinetics in Rats; [14]): 4 h | AUC(0-inf) (in vivo [9]): 608 ng·h/mL | half-life (in vivo [9]): 4.1 h | antivirus efficacy in influenza virus PR/8/34 mouse model (influenza virus PR/8/34): potent antivirus efficacy; also recorded: potent antivirus activity | survival (influenza virus PR/8/34; mouse, po): survived throughout the study | body weight loss (influenza virus PR/8/34; mouse, po): minimal | EC50 (A/Weiss/43 (H1N1)): 1.2 nM | antivirus activity (influenza virus): potent antivirus activity | IC50 [1]: 15 nM | EC50 (IFV A/PR/8/34 (H1N1)): 1.1 nM | AUC(0-inf) (in vivo [10]): 257 ng·h/mL | half-life (in vivo [10]): 11 h | EC50 (IFV A/WSN/33 (H1N1)): 0.32 nM | AUClast ([11]; IV 0.25 mg/kg, non-fasted male cynomolgus monkeys): 204 | AUClast [11, 15]: 231 | EC50 (B/Florida/78/2015; MDCK): 25 nM | CC50 (in vitro): 13000 nM | EC50 (A/Hongkong/8/68 (H3N2)): 0.68 nM | AUClast ([12]; IV 1 mg/kg): 601 | AUClast ([12]; PO 10 mg/kg): 2129

COC(=O)OCOc1c2n(ccc1=O)N(C1c3ccccc3[Se]Cc3c1ccc(F)c3F)[C@@H]1COCCN1C2=O (some centres unmarked) [Compound C-1]
AUClast (Pharmacokinetics in Rats; PO 3 mg/kg): 280 | antivirus efficacy in influenza virus PR/8/34 mouse model (influenza virus PR/8/34): potent antivirus activity | improvement in body weight loss (influenza virus PR/8/34; mouse, po): significant dose-dependent improvement | survival (influenza virus PR/8/34; mouse, po): survived throughout the study | body weight loss (influenza virus PR/8/34; mouse, po): minimal | IC50 [1]: 1550 nM | AUClast [11, 15]: 414 | AUClast ([11]; PO 1 mg/kg, non-fasted male cynomolgus monkeys): 400 | food effect / impact of feeding condition on oral absorption ([11]; in words, cynomolgus monkeys, fasted vs non-fasted): did not impact oral absorption | MTD at 7 days ([13]; both sexes, Sprague Dawley, rat, in vivo, oral gavage once daily for 7 days, read-out: maximum tolerated dose (MTD)): > 500 mg/kg/day | toxic findings (clinical observation, body weight, food consumption, gross pathology) ([13]; in words, 20, 100 and 500 mg/kg oral gavage once daily for 7 days): No C-1-related toxic findings | tolerability ([13]; in words, oral gavage once daily for 7 days): well tolerated | AUClast ([12]; PO 10 mg/kg): 2834

CP(C)(=O)c1cn2c(c(O)c1=O)C(=O)N1CCOC[C@H]1N2[C@@H]1c2ccccc2SCc2c1ccc(F)c2F [Compound E-1c, (R)-12-((S)-7,8-difluoro-6,11-dihydrodibenzo[b,e]thiepin-11-yl)-9-(dimethylphosphoryl)-7-hydroxy-3,4,12,12a-tetrahydro-1H-[1,4]oxazino[3,4-c]pyrido[2,1-f][1,2,4]triazine-6,8-dione]
EC50 (B/Lee/40; [16]): > 1000 nM | EC50 [7]: 129 nM | EC50 (A/Weiss/43 (H1N1)): 133 nM | EC50 (IFV A/PR/8/34 (H1N1)): 68 nM | EC50 (IFV A/WSN/33 (H1N1)): 58 nM | EC50 (B/Florida/78/2015; [17]): > 1000 nM | CC50 (in vitro): > 100000 nM | EC50 (A/Hongkong/8/68 (H3N2)): 207 nM

CCP(=O)(CC)c1cn2c(c(O)c1=O)C(=O)N1CCOC[C@H]1N2[C@@H]1c2ccccc2SCc2c1ccc(F)c2F [Compound F-1, (R)-9-(Diethylphosphoryl)-12-((S)-7,8-Difluoro-6,11-Dihydrodibenzo[b,e]-Thiepin-11-yl)-7-Hydroxy-3,4,12,12a-Tetrahydro-1H-[1,4]Oxazino[3,4-c]Pyrido[2,1-f][1,2,4]Triazine-6,8-Dione]
EC50 (B/Lee/40; [16]): > 1000 nM | EC50 [7]: 125 nM | EC50 (A/Weiss/43 (H1N1)): 22 nM | EC50 (IFV A/PR/8/34 (H1N1)): > 100 nM | EC50 (IFV A/WSN/33 (H1N1)): 57 nM | EC50 (B/Florida/78/2015; [17]): > 1000 nM | CC50 (in vitro): > 100000 nM | EC50 (A/Hongkong/8/68 (H3N2)): 310 nM

CCC(CC)O[C@@H]1C=C(C(=O)O)C[C@H](N)[C@H]1NC(C)=O [Oseltamivir acid, reference compound]
EC50 (B/Lee/40; [16]): 749 nM | EC50 [7]: 231 nM | EC50 (A/Weiss/43 (H1N1)): 476 nM | EC50 (IFV A/PR/8/34 (H1N1)): > 100000 nM | EC50 (IFV A/WSN/33 (H1N1)): > 100000 nM | EC50 (B/Florida/78/2015; [17]): 8480 nM | CC50 (in vitro): > 100000 nM | EC50 (A/Hongkong/8/68 (H3N2)): 20 nM

COC(=O)OCOc1c2n(ccc1=O)N([C@@H]1c3ccccc3SCc3c1ccc(F)c3F)[C@@H]1COCCN1C2=O [baloxavir marboxil]
oral availability [8]: poor oral availability

CCOC(=O)C1=C[C@@H](OC(CC)CC)[C@H](NC(C)=O)[C@@H](N)C1 [oseltamivir, reference compound]
improvement in body weight loss (influenza virus PR/8/34; mouse, po): did not result in substantial improvement | mice died (influenza virus PR/8/34; mouse, po): 60%
